From article PMC6529709 (Heliyon, 2019)

Target: urease (from jack bean) (Canavalia ensiformis, UniProt P07374)
Test: indophenol
Format: biochemical

Chain of urease (from jack bean) (P07374 whole entry, looked up): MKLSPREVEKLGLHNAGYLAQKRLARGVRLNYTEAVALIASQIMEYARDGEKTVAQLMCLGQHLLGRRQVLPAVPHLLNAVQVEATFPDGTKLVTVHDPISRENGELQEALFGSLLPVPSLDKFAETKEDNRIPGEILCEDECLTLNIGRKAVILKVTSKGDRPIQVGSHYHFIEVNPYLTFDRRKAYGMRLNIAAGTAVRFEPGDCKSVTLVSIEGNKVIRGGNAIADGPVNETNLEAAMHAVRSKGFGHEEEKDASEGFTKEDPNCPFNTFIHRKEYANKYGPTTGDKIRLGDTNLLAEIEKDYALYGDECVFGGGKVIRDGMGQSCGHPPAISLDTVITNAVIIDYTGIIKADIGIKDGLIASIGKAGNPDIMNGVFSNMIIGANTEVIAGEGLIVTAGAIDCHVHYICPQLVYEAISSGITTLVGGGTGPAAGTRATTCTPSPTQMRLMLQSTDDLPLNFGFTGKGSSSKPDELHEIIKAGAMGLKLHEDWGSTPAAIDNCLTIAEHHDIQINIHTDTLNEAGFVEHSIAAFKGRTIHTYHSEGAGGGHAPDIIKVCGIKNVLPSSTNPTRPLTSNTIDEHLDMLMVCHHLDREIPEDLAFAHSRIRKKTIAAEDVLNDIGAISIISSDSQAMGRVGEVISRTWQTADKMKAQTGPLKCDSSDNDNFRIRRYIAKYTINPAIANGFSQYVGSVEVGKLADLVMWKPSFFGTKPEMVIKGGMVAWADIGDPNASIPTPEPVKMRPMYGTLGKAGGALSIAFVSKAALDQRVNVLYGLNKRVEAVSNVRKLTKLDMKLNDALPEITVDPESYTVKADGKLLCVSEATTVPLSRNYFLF

First: COc1ccc(/C=N/c2cc(Cl)cc(Cl)c2)cc1 [ASB2]
Second: COc1ccc(/C=N/N=C/c2ccc(OC)cc2)cc1 [ASB1]
The IC50 of the first is 4.8-fold higher: 184 µM for the first, 38.4 µM for the second.

NC(N)=S [Thiourea, reference compound] gave an IC50 of 65.3 µM.
